Data set [1] is described as follows: Dissociation constant, pKa of compound. In kind it is physicochemical.
The target in data set [2] is T1, N-alpha-acetyltransferase 50 (Homo sapiens) (UniProt Q9GZZ1).
T1 sequence (whole entry): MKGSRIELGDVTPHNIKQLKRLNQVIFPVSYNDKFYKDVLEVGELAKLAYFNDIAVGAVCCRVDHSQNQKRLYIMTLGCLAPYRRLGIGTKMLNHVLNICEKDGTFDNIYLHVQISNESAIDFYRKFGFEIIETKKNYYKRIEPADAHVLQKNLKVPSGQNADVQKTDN
Description: Binding affinity to full length human N-terminal His-tagged/GST-tagged Naa50 expressed in Escherichia coli BL21(DE3) cells assessed as half life for dissociation by SPR analysis

The target of data set [3] is T2, N-alpha-acetyltransferase 50 (Homo sapiens, UniProt Q9GZZ1).
T2 sequence (Q9GZZ1 whole entry): T1 sequence (whole entry)
Kind of data set: Binding affinity to full length human N-terminal His-tagged/GST-tagged Naa50 expressed in Escherichia coli BL21(DE3) cells in by SPR analysis. Background: SPR reads the build-up and loss of mass on a sensor chip optically.

Consider `Cc1csc([C@@H]2C[C@H](NC(=O)[C@@H]3CC(=O)N(C)C(=O)N3)CN2C(=O)c2ccc(C(=O)O)cc2)n1`, for which, in data set [1], the pKa is 3.6.
Take `CC(C)(COP(=O)(O)OP(=O)(O)OC[C@H]1O[C@@H](n2cnc3c(N)ncnc32)[C@H](O)[C@@H]1OP(=O)(O)O)[C@@H](O)C(=O)NCCC(=O)NCCS` [COENZYME_A]: the T1/2 in data set [2] turned out to be 0.4 min. The compound also returned a Kd in data set [3] of 156 nM.
In data set [1], `Cc1csc([C@@H]2C[C@H](NC(=O)[C@@H]3CC(=O)N(C)C(=O)N3)CN2C(=O)c2ccc(-c3nn[nH]n3)cc2)n1` showed a pKa of 3.7.
On the same count and under the same terms, then `CNC(=O)c1csc([C@@H]2C[C@H](NC(=O)[C@@H]3CC(=O)N(C)C(=O)N3)CN2C(=O)c2ccc(-c3nn[nH]n3)cc2)n1`, with 4.
Turning to `CC(=O)SCCNC(=O)CCNC(=O)[C@H](O)C(C)(C)COP(=O)(O)OP(=O)(O)OC[C@H]1O[C@@H](n2cnc3c(N)ncnc32)[C@H](O)[C@@H]1OP(=O)(O)O`, the T1/2 in data set [2] was found to be 4 min. Moreover, the Kd in data set [3] was found to be 17.6 nM.
In turn, `Cc1csc([C@@H]2C[C@H](NC(=O)[C@@H]3CC(=O)N(C)C(=O)N3)CN2C(=O)c2ccc(-c3nnc[nH]3)cc2)n1` registered a pKa in data set [1] of 8.9.

What is called pKa is the pH at which an ionisable group is half protonated. A lower pKa goes with a stronger acid or weaker base. The Kd is the equilibrium constant for the complex coming apart. Lower therefore signals a tighter complex.

The record behind these values is ChEMBL document CHEMBL4616699, “Characterization of Specific N-α-Acetyltransferase 50 (Naa50) Inhibitors Identified Using a DNA Encoded Library” (ACS Med Chem Lett, 2020).
